Measured values taken from paper PMC7411736, “Effects of Sesamin, the Major Furofuran Lignan of Sesame Oil, on the Amplitude and Gating of Voltage-Gated Na^+ and K^+ Currents” (Molecules, 2020).
Read-outs that look alike come from different tables or passages of the source.

Test system: voltage-gated Na+ currents (INa) in pituitary GH3 cells
Assay: Whole-cell patch-clamp of voltage-gated Na+ current evoked by depolarization from −80 to −10 mV
Format: cell-based, rat
Details: for IC50: GH3 cells, depolarization −80 to −10 mV
Procedure: In an initial step of the experiments, we examined the effects of SSM on the amplitude and gating of INa in response to rapid membrane depolarization. Cells were bathed in Ca^2+-free Tyrode’s solution containing 10 mM tetraethylammonium chloride (TEA) and the recording pipette was backfilled with a Cs^+-containing solution. […] For example, when rapid membrane depolarization from −80 to −10 mV with a duration of 40 msec was delivered (indicated in the inset of Figure 1A) to evoke INa, the addition of 3 μM SSM caused a decrease in the peak or sustained amplitude of INa to 139 ± 11 pA (n = 11, P < 0.05) or 12 ± 3 pA (n = 11, P < 0.05), respectively, from the control values of 248 ± 18 or 21 ± 2 pA (n = 11). After the removal of SSM, the peak and sustained amplitude returned to 232 ± 16 or 19 ± 2 pA (n = 7, P < 0.05).
The bath solution (i.e., a HEPES-buffered normal Tyrode’s solution) utilized in the present study was composed of 136 mM NaCl, 5.4 mM KCl, 1.8 mM CaCl2, 0.53 mM MgCl2, 5.5 mM glucose, and 5.5 mM HEPES titrated with NaOH to pH 7.4. To measure macroscopic IK(DR) and Ih, we filled patch pipettes by using a solution containing 130 mM K-aspartate, 20 mM KCl, 1 mM KH2PO4, 1 mM MgCl2, 3 mM Na2ATP, 0.1 mM Na2GTP, 0.1 mM EGTA, and 5 mM HEPES adjusted with KOH to pH 7.2. To record INa and INa(R), we substituted K^+ ions in the pipette solution inside the electrode for equmolar Cs^+ ions and the pH value in the solution was adjusted to 7.2 with CsOH. To measure IK(erg) and IK(M), cells were bathed in a high-K^+ solution containing 145 mM KCl, 0.53 mM MgCl2, and 5 mM HEPES-KOH buffer, pH 7.4. All solutions were prepared using deionized water from a Millipore Milli-Q purification system (ρ = 18 MΩ·cm) (Merck, Ltd., Taipei, Taiwan). The pipette solution and culture medium were filtered on the day of use with a sterile Acrodisc® syringe filter with a 0.2-μm Supor® membrane (Bio-Check; New Taipei City, Taiwan).
The pituitary adenomatous cell line, GH3, was acquired from the Bioresource Collection and Research Center ((BCRC-60015, https://catalog.bcrc.firdi.org.tw/BcrcContent?bid=60015); Hsinchu, Taiwan). Cells were maintained in Ham’s F-12 medium supplemented with 2.5% fetal bovine serum (v/v), 15% horse serum (v/v), and 2 mM L-glutamine in a humidified environment of 5% CO2/95% air. When well differentiated, GH3 cells were transferred to a serum- and Ca^2+-free medium. Electrical recordings were performed 5 or 6 days after cells were cultured with 60–80% confluence.
On the day of each experiment, cells were dispersed with a 1% trypsin/EDTA solution and a few drops of cell suspension were rapidly placed in a custom-built recording chamber mounted on the stage of an inverted DM-IL microscope (Leica; Major Instruments, Kaohsiung, Taiwan). They were immersed at room temperature (20–25 °C) in normal Tyrode’s solution, the composition of which is elaborated above. We measured ion currents in the whole-cell model of a standard patch-clamp technique with dynamic adaptive suctioning (i.e., decremental change of suction pressure in response to a progressive increase in the electrode resistance), with the aid of an RK-400 (Bio-Logic, Claix, France) or an Axopatch-200B (Molecular Devices, Sunnyvale, CA) patch amplifier. The microelectrodes used were prepared from Kimax-51 borosilicate capillaries with a 1.5-mm outer diameter (#34500; Kimble; Dogger, New Taipei City, Taiwan) by using a PP-830 vertical puller (Narishige, Taiwan Instrument, Taipei, Taiwan). The recording electrodes had their tip resistances, which ranged between 3 and 5 MΩ, as they were filled up with the different internal solutions elaborated above. During the measurements, the recorded area on the vibration-free table was shielded by using a Faraday cage (Scitech, Seoul, South Korea). […]

Structure (SMILES): c1cc2c(cc1[C@H]1OC[C@H]3[C@@H]1CO[C@@H]3c1ccc3c(c1)OCO3)OCO2 [SSM, [1S-(1α,3aα,4α,6aα)] -5,5’- (tetrahydro-1H,3H-furo [3–4-c]furan-1,4-diyl)bis-1,3-benzodioxole]
- Effect on peak amplitude of INa (3 μM, −80 to −10 mV (Figure 2)): produced inhibitory effects
- Sustained amplitude of INa (3 μM, −80 to −10 mV, 40 msec, control 21 ± 2 pA, n = 11): 12 ± 3 pA
- Peak amplitude of INa (3 μM, −80 to −10 mV, 40 msec, control 248 ± 18 pA, n = 11): 139 ± 11 pA
- Effect on peak component of INa (0.1 to 0.3 μM): little or no effect
- Effect on sustained component of INa (0.1 to 0.3 μM): effectively blocked
- IC50 (amplitude at beginning of pulse, read-out: IC50 for decrease of peak INa): 7.2 µM
- IC50 (amplitude at end of pulse, read-out: IC50 for decrease of sustained INa): 0.6 µM
- Kd (first-order reaction scheme, open-state block, read-out: Dissociation constant (KD = k−1/k+1*) of INa block): 930 nM
- Unblocking (backward) rate constant k−1 of INa block (from intercept of 1/τinact(S) versus [SSM]): 0.0415 msec^−1
- Blocking (forward) rate constant k+1* of INa block (from slope of 1/τinact(S) versus [SSM]): 0.0449 msec^−1μM^−1
- Peak amplitude of INa after removal of compound (washout after 3 μM, n = 7): 232 ± 16 pA
- Sustained amplitude of INa after removal of compound (washout after 3 μM, n = 7): 19 ± 2 pA
